Source: patent US8680290B2, “Isoxazoline derivatives and their use as herbicides” (Syngenta Limited, priority 2004, dated 2014)

System: Monocotyledonous and dicotyledonous test plants
Test: Example B1 herbicidal action, application pre-emergence (Table B1b)
Type: in vivo
Settings: 250 g/ha, evaluated after 4 weeks
Method: Monocotyledonous and dicotyledonous test plants were sown in seed trays in standard soil. Immediately after sowing (pre-emergence) or after 8 to 9 days cultivation (post-emergence), the test compounds were applied by spraying in the form of an aqueous solution derived from the formulation of the technical active ingredient in 0.6 ml acetone and 45 ml formulation solution containing 10.6% Emulsogen EL (CAS RN 61791-12-6), 42.2% N-methylpyrrolidone, 42.2% dipropylene glycol monomethyl ether (CAS RN 34590-94-8) and 0.2% X-77 (CAS RN 11097-66-8). The test plants were then grown in a greenhouse under optimum conditions. After a test duration of 3 weeks (post-emergence) or 4 weeks (pre-emergence), the test was evaluated (10=total damage to plant, 0=no damage to plant).

| Compound | herbicidal action (damage rating 0-10), Amaranthus | herbicidal action (damage rating 0-10), Digitaria | herbicidal action (damage rating 0-10), Panicum | herbicidal action (damage rating 0-10), Setaria | herbicidal action (damage rating 0-10), Sida |
| --- | --- | --- | --- | --- | --- |
| Cc1nsc(C#N)c1C(F)S(=O)(=O)C1=NOC(C)(C)C1 (centres unmarked) [Compound No. 3.01, 4-[(5,5-dimethyl-4,5-dihydroisoxazole-3-sulfonyl)-fluoromethyl]-3-methyl-isothiazole-5-carbonitrile] | 7 | 8 | 10 | 7 | 0 |
| Cc1nn(C)c(OCC(F)(F)F)c1C(F)S(=O)(=O)C1=NOC(C)(C)C1 (centres unmarked) [Compound No. 2.24] | 10 | 10 |  | 10 | 5 |
| CC1(C)CC(S(=O)(=O)C(Cn2cncn2)c2c(F)cccc2F)=NO1 (racemic) [Compound No. 1.90] | 4 | 4 | 0 | 0 | 5 |
| CCOc1c(C(F)(F)S(=O)(=O)C2=NOC(C)(C)C2)c(C(F)(F)F)nn1C [2.17] | 10 | 8 | 8 | 8 | 5 |
| Cc1nsc(C#N)c1C(F)(F)S(=O)(=O)C1=NOC(C)(C)C1 [Compound No. 3.02, 4-[(5,5-dimethyl-4,5-dihydroisoxazole-3-sulfonyl)-difluoro-methyl]-3-methyl-isothiazole-5-carbonitrile] | 7 | 10 | 10 | 10 | 0 |
| CC1(C)CC(S(=O)(=O)C(Br)c2cc(F)ccc2F)=NO1 (centres unmarked) [1.135] | 7 | 10 | 10 | 9 | 0 |
| CC1(C)CC(S(=O)(=O)C(Br)c2cc(F)cc(F)c2)=NO1 (centres unmarked) [1.134] | 5 | 10 | 10 | 9 | 0 |
| CC1(C)CC(S(=O)(=O)C(CC=C(F)F)c2c(F)cccc2F)=NO1 (centres unmarked) [Compound No. 1.04] | 0 | 7 | 5 | 2 | 0 |
| Cc1cc(C(F)S(=O)(=O)C2=NOC(C)(C)C2)no1 (centres unmarked) [4.02] | 10 | 8 | 10 | 7 | 0 |
| CC1(C)CC(S(=O)(=O)C(F)c2cc(F)cc3c2OCOC3)=NO1 (centres unmarked) [1.106] | 3 | 7 | 8 | 6 | 0 |
| CC1(C)CC(S(=O)(=O)C(C(=O)C(F)F)c2c(F)cccc2F)=NO1 (centres unmarked) [Compound No. 1.57] | 9 | 8 | 10 | 8 | 6 |
| CC1(C)CC(S(=O)(=O)C(Br)c2ccccc2)=NO1 (racemic) [1.81] | 9 | 6 | 8 | 5 | 0 |
